The record followed here is patent US8993721B2, “Peptides for targeting apoptotic cells and uses thereof” (Kyungpook National University Industry-Academic Cooperation …, priority 2008, dated 2015).

Entries after “also recorded” stand apart in the source; their conditions may differ. Where no end group is shown, it is not given here.

Series [1] has as its system brain of stroke rat (middle cerebral artery occlusion/reperfusion). Put plainly: Molecular imaging of stroke (Example 6). Format: in vivo. The protocol: A stroke model was established by occluding the left middle cerebral artery of a rat for 2 hours, followed by reperfusion. Two hours after the reperfusion, the peptide having an amino sequence represented by SEQ ID NO: 1 (ApoPep-1) and a control peptide, labeled with Cy7.5 NIR fluorescence, was intravenously injected at a final concentration of 50 μM to the stroke rat and a normal rat through the tail vein, under isoflurane anesthesia. One and three hours after the intravenous injection, NIR images of the head portion were obtained. Further, NIR fluorescence images of the brains of the rats of the 3 hour group were obtained.

The subject of series [2] is etoposide-treated apoptotic A549 cells. Put plainly: Microscopic observation of binding of the peptide to apoptotic cells, A549 (Example 9-1). It counts as cell-based, human. The method, then: Cells were cultured in chamber slide (Nunc) and treated with 50 μM etoposide (Sigma) for 16 hours (A549 cells) or 50 ng/ml trail (R&D Systems) for 16 hours (MDA-MB231 cells) to induce apoptosis. The cells were cultured in RMPI-1640 medium (A549 cells) or DMEM-High (MDA-MB231 cells) containing antibiotics (penicillin and streptomycin) and 10% FBS. All the cells were sub-cultured every 3 or 4 days. The apoptosis-induced apoptotic cells were washed with PBS and blocked with 1% BSA at 37° C. for 30 minutes. Then, the cells were reacted with 10 μM of the peptide labeled with fluorescein, at 4° C. for 1 hour. After washing, the cells were reacted with an annexin V reaction buffer containing Alexa594-labeled annexin V (Invitrogen) at room temperature for 15 minutes. The cells were washed with PBS and then fixed with 4% paraformaldehyde for 5 minutes. After treatment with a mounting solution containing the DAPI nuclear stain, images of the cells were obtained under a fluorescence microscope.

Series [3] relates to apoptotic cells in A549 tumor tissue xenotransplanted in nude mouse. Put plainly: Histological analysis of tumor targeting (Example 8). It counts as in vivo. Conditions: fluorescein-labeled peptide, tail vein, 50 μM. The method, then:
All animal experiments were performed in accordance with the guideline of the Institutional Animal Care and Use Committee. For tumor xenotransplantation, human lung cancer cells (A549, 1×10^6 cells) suspended in RMPI-1640 medium was subcutaneously injected at the right upper or lower limb of a 6-week-old male BALB/c nude mouse (Hyochang Science). Then, 3 to 4 weeks were given for the tumor to grow to a size of 0.5 to 1 cm. The A549 cell line used in the experiment was cultured in RMPI-1640 medium containing 10% fetal bovine serum (FBS) in which antibiotics (penicillin and streptomycin) were included. Subculturing was performed every 3 or 4 days.
The peptides used in the present invention were fluorescein-attached form at the N-terminal. They were synthesized according to the standard Fmoc technique and then isolated through HPLC. The peptide synthesis was performed by an expertise company (Peptron). […]
For histological analysis, the mouse was anesthetized and the abdomen was cut open. […] After treatment with a mounting solution containing the nuclear stain 4′,6-diamidino-2-phenylindole (DAPI) (Invitrogen), images of the cells were obtained under a fluorescence microscope (Zeiss).

The test system of series [4] is A549 tumor xenotransplanted in nude mice. Put plainly: In vivo fluorescence imaging of targeting of apoptotic cells in tumor (Example 10). Set-up: species or system mouse. The conditions noted are these: fluorescein-labeled; large tumor (1 cm or larger).
The subject of series [5] is etoposide-treated apoptotic A549 cells. Put plainly: FACS analysis of binding to apoptotic cells (Example 9-3). It counts as cell-based, human. The method, then:
As another way of confirming the binding of the polypeptide of the present invention (ApoPep-2) to apoptotic cells, apoptotic cells were treated with the peptide, labeled with fluorescein, and the binding was confirmed through FACS analysis. First, apoptosis was induced by treating A549 cells with 50 μM etoposide for 20 hours. The apoptotic cells or normal cells were reacted with ApoPep-2 (10 μM) or a control peptide at the same concentration, labeled with fluorescein, at 4° C. or 37° C. for 1 hour. Further, the cells were reacted with fluorescein-labeled annexin V at room temperature for 15 minutes. After washing cells with PBS, FACS analysis was performed using a FACS instrument (Becton Dickinson).
A general note: Flow cytometry measures light scatter and fluorescence of single cells or particles in a stream.

The subject of the next series is apoptotic A549 cells. Kind of series: Competitive inhibition of binding to apoptotic cells by annexin V treatment (Example 9-2). It counts as cell-based, human. Conditions: annexin V 1000 μM pre-treatment. The method, then: In order to further investigate the binding properties of the polypeptide of the present invention (ApoPep-2) to apoptotic cells, competitive inhibition by annexin V was measured. To this end, first, apoptotic A549 cells were pre-treated with annexin V, not labeled with fluorescence, at concentrations of 0, 500 and 1000 μM. Then, after reacting the cells with fluorescence-labeled annexin V under the same condition as described in Example <9-1>, the binding of the cells was observed under a fluorescence microscope.
Further, apoptotic A549 cells were pre-treated with annexin V, not labeled with fluorescence, at a concentration of 1000 μM. Then, after reacting the cells with fluorescence-labeled peptide under the same condition as described in Example <9-1>, the binding of the cells was observed under a fluorescence microscope.

Series [6] relates to A549 tumor xenotransplanted in nude mice. Kind of series: In vivo fluorescence imaging of targeting of apoptotic cells in tumor (Example 10). Set-up: species or system mouse. The protocol:
Nude mice in which tumor was xenotransplanted using A549 cells were prepared as in Example <8-1>. The mice were grouped into a doxorubicin (Sigma) treated group (Dox+) and untreated group (Dox−). The treated group was treated with doxorubicin (5 mg/kg) one time, 12 hours prior to injection of the peptide. At the tail vein of each mouse, the polypeptide of the present invention or a control peptide, labeled with fluorescein or Cy7.5 near-infrared fluorescent dye, was injected at a final concentration of 50 μM, under isoflurane anesthesia. Following the injection, in vivo fluorescence images were obtained 0.5 hours and every hour, from 1 hour to 4 hours, after the injection, using an Optix exPlore instrument (ART). The images were standardized using the software provided with the instrument.

[7] abbreviates: Cy7.5-labeled peptide 50 μM i.v.

Consider “CQRPPR (also: fluorescein or Cy7.5 label) [ApoPep-1, peptide CQRPPR screened for macrophages; used fluorescein- or Cy7.5-labeled]”, for which the “fluorescence of isolated brain of stroke rat” value in series [1] (3 hour group, left middle cerebral artery occluded) is “fluorescence was observed at the left hemisphere”. Besides, in series [1] (setting [7]), the “NIR fluorescence at the head portion of the normal rat” value was “almost nonexistent” and the “NIR fluorescence at the head portion of the stroke rat at 3 hours” value is “very strong fluorescence”. For the same substance, the “NIR fluorescence at the head portion of the stroke rat at 1 hour” value in series [1] (Cy7.5-labeled peptide 50 μM i.v., 2 hours after reperfusion) was “NIR fluorescence was observed”.

“CSVAPR (also: fluorescein or Cy7.5 label) [ApoPep-2, peptide CSVAPR screened for endothelial cells; used fluorescein- or Cy7.5-labeled]”: in series [2] (10 μM peptide 4° C. 1 hour, Alexa594-annexin V), the “labeling of A549 cells not treated with etoposide” value is recorded as “hardly bound to the untreated cells; also recorded: no labeling was observed”. In addition, in series [2] (50 μM etoposide 16 hours, 10 μM fluorescein-labeled peptide 4° C. 1 hour, Alexa594-annexin V), the “labeling of etoposide-treated apoptotic A549 cells” value is “strongly bound to the apoptotic cells; also recorded: labeling was observed”. In series [2] (etoposide-treated apoptotic cells), the “location of peptide binding relative to annexin V binding (merge), A549” value is given as “at the same locations”. Also, the “binding to cells stained by TUNEL (apoptotic cells) in the tumor tissue” value in series [3] (2 hours) is “target the tumor tissue and mainly bind to the tumor cells undergoing apoptosis; also recorded: binds to the cells stained by TUNEL”. Moreover, the “peptide fluorescence observed in the tumor tissue” value in series [3] (2 hours circulation) is “observed in the tumor tissue”. The “fluorescence signal from the tumor at 5 hours” value in series [4] is recorded as “strong fluorescence signal”. Besides, the “binding to normal cells (FACS)” value in series [5] (A549 without etoposide, 10 μM, 4° C. or 37° C.) is given as “almost nonexistent or minimal”. Besides, in series [5] (etoposide 20 hours, peptide 10 μM, 4° C. 1 hour), the “cells bound to the peptide at 4° C.” value is recorded as 28%. For the same substance, the “cells bound to the peptide at 37° C.” value in series [5] (etoposide 20 hours, peptide 10 μM, 37° C. 1 hour) turned out to be 48%. Moreover, the “binding of fluorescence-labeled peptide after pre-treatment with unlabeled annexin V” value in the series with apoptotic A549 cells is “not inhibited”. Moreover, the “ex vivo fluorescence signal from the kidney” value in series [6] (4 hours after peptide injection, all the groups, renal clearance) is “strong”. In addition, the “ex vivo fluorescence signal from the isolated tumor, doxorubicin treated group” value in series [6] (4 hours after peptide injection, compared to Dox− ApoPep-2 and Dox+ control peptide) is “strong”. In series [6] (Cy7.5-labeled, doxorubicin treated group (5 mg/kg, 12 hours before)), the “time at which the fluorescence signal from the tumor tissue was most strongly detected” value worked out at 2 h. Also, the “fluorescence signal from the tumor, doxorubicin treated group” value in series [6] (Dox+, Cy7.5-labeled peptide 50 μM) was “targeted the tumor tissue”. Moreover, the “fluorescence signal from the tumor, doxorubicin untreated group” value in series [6] (Dox−, Cy7.5-labeled peptide 50 μM) is recorded as “targeting was not observed; also recorded: weakly detected”. Besides, the “time from which fluorescence from the tumor was detected” value in series [6] (fluorescein-labeled, large tumor (1 cm or larger in diameter), no agent) was found to be 2 h.
